Measured values as given in US20130109682A1, “CYCLIC ETHER COMPOUNDS USEFUL AS KINASE INHIBITORS” (NOVARTIS AG, priority 2010, published 2013).

Columns and labels:
Assay type in all cases: biochemical
PIM3 = PIM3 (Homo sapiens, UniProt Q86V86); assay: KinaseGlo Pim3 ATP depletion assay
Method: KinaseGlo Pim3 ATP Depletion Assay
The activity of PIM3 is measured using a luciferase-luciferin based ATP detection reagent to quantify ATP depletion resulting from kinase-catalyzed phosphoryl transfer to a peptide substrate. Compounds to be tested are dissolved in 100% DMSO and directly distributed into white 384-well plates at 0.5 μl per well. To start the reaction, 10 μl of 10 nM Pim3 kinase and 200 μM BAD peptide (RSRHSSYPAGT-OH) in assay buffer (50 mM HEPES pH 7.5, 5 mM MgCl2, 1 mM DTT, 0.05% BSA) is added into each well. After 15 minutes, 10 μl of 80 μM ATP in assay buffer is added. Final assay concentrations are 5 nM […], 40 μM ATP, 100 μM BAD peptide and 2.5% DMSO. The reaction is performed until approximately 50% of the ATP is depleted, then stopped by the addition of 20 μl KinaseGlo Plus (Promega Corporation) solution. The stopped reaction is incubated for 10 minutes and the remaining ATP detected via luminescence on the Victor2 (Perkin Elmer).

GSK3β = GSK3β (Homo sapiens, UniProt P49841); assay: GSK3β ATP depletion assay; details: read-out: GSK3b IC50
GSK3β, sequence (P49841 whole entry, species assumed): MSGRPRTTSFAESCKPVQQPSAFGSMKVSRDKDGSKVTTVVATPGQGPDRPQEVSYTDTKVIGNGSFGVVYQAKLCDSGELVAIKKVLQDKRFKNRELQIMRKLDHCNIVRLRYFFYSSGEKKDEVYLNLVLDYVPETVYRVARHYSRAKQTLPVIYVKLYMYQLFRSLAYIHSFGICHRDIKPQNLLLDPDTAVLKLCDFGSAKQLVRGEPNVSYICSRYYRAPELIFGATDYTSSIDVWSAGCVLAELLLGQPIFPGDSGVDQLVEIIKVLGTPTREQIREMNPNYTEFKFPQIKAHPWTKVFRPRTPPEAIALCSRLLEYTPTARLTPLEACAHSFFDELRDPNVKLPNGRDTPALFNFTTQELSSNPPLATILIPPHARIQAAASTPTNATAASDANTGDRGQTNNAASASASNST
Method: GSK3β ATP Depletion Assay
The activity of GSK3β is measured using a luciferase-luciferin based ATP detection reagent to quantify ATP depletion resulting from kinase-catalyzed phosphoryl transfer to a peptide substrate. Compounds to be tested are dissolved in 100% DMSO and directly distributed into white 384-well plates at 0.5 μl per well. To start the reaction, 10 μl of 10 nM GSK3B kinase and 20 μM biotinylated CREB peptide ([…](pS)YR-NH2) in assay buffer (50 mM TRIS pH 7.5, 15 mM MgCl2, 1 mM DTT, 0.1% BSA) is added into each well. After 15 minutes, 10 μl of 2 μM ATP in assay buffer is added. Final assay concentrations are 5 nM GSK3B, […], 10 μM b-CREB peptide and 2.5% DMSO. The reaction is performed until approximately 50% of the ATP is depleted, then stopped with the addition of 20 μl KinaseGlo (Promega Corporation) solution. The stopped reaction is incubated for 10 minutes and the remaining ATP is detected via luminescence on the Victor2 (Perkin Elmer).

PIM1 = PIM1 (Homo sapiens, UniProt P11309); assay: KinaseGlo Pim1 ATP depletion assay
PIM1, sequence (P11309 whole entry): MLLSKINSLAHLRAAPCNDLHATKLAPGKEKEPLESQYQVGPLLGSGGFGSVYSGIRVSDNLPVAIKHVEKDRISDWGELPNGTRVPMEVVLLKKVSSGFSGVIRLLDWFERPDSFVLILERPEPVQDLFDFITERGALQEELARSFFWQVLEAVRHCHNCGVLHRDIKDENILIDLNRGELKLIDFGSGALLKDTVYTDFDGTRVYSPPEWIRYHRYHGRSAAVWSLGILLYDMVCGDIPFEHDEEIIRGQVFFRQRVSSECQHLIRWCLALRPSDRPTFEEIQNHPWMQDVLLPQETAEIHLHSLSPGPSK
Method: KinaseGlo Pim1 ATP Depletion Assay
The activity of PIM1 is measured using a luciferase-luciferin based ATP detection reagent to quantify ATP depletion resulting from kinase-catalyzed phosphoryl transfer to a peptide substrate. Compounds to be tested are dissolved in 100% DMSO and directly distributed into white 384-well plates at 0.5 μA per well. To start the reaction, 10 μA of 5 nM Pim1 kinase and 80 μM BAD peptide (RSRHSSYPAGT-OH) in assay buffer (50 mM HEPES pH 7.5, 5 mM MgCl2, 1 mM DTT, 0.05% BSA) is added into each well. After 15 minutes, 10 μl of 40 μM ATP in assay buffer is added. Final assay concentrations are 2.5 nM PIM1, 20 μM ATP, 40 μM BAD peptide and 2.5% DMSO. The reaction is performed until approximately 50% of the ATP is depleted, then stopped with the addition of 20 μA KinaseGlo Plus (Promega Corporation) solution. The stopped reaction is incubated for 10 minutes and the remaining ATP detected via luminescence on the Victor2 (Perkin Elmer). […] IC50, the half maximal inhibitory concentration, represents the concentration of a test compound that is required for 50% inhibition of its target in vitro.

PIM2 = PIM2 (Homo sapiens, UniProt Q9P1W9); assay: KinaseGlo Pim2 ATP depletion assay
PIM2, sequence (Q9P1W9 whole entry): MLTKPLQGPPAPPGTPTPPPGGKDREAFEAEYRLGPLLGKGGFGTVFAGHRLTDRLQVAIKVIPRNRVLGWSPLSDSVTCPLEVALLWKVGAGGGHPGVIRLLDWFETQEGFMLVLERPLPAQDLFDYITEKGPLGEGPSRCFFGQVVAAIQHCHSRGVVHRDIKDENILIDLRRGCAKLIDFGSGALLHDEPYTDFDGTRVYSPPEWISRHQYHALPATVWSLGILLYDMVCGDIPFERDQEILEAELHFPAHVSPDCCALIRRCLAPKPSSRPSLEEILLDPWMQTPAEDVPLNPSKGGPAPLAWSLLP
Method: KinaseGlo Pim2 ATP Depletion Assay
The activity of PIM2 is measured using a luciferase-luciferin based ATP detection reagent to quantify ATP depletion resulting from kinase-catalyzed phosphoryl transfer to a peptide substrate. Compounds to be tested are dissolved in 100% DMSO and directly distributed into white 384-well plates at 0.5 piper well. To start the reaction, 10 μl of 10 nM Pim2 kinase and 20 μM BAD peptide (RSRHSSYPAGT-OH) in assay buffer (50 mM HEPES pH 7.5, 5 mM MgCl2, 1 mM DTT, 0.05% BSA) is added into each well. After 15 minutes, 10 μl of 8 μM ATP in assay buffer is added. Final assay concentrations are 5 nM PIM2, 4 μM ATP, 10 μM BAD peptide and 2.5% DMSO. The reaction is performed until approximately 50% of the ATP is depleted, then stopped with the addition of 20 μl KinaseGlo Plus (Promega Corporation) solution. The stopped reaction is incubated for 10 minutes and the remaining ATP detected via luminescence on the Victor2 (Perkin Elmer).

Compound: O=C(Nc1cnccc1[C@@]1(C(F)(F)F)C[C@@H](O)CCO1)c1ccc(F)c(-c2c(F)cccc2F)n1 [Example 53, 6-(2,6-difluorophenyl)-5-fluoro-N-(4-((2R,4S)-4-hydroxy-2-(trifluoromethyl)tetrahydro-2H-pyran-2-yl)pyridin-3-yl)picolinamide]
- IC50 (PIM3): 847 nM
- IC50 (GSK3β): 3120 nM
- IC50 (PIM1): 78 nM
- IC50 (PIM2): 10300 nM

Compound: C[C@H]1O[C@@H](c2ccncc2NC(=O)c2ccc(F)c(-c3c(F)cccc3F)n2)C[C@@H](O)[C@@]1(O)CO [Example 20, 6-(2,6-difluorophenyl)-N-(4-((2R,4R,5S,6R)-4,5-dihydroxy-5-(hydroxymethyl)-6-methyltetrahydro-2H-pyran-2-yl)pyridin-3-yl)-5-fluoropicolinamide]
- IC50 (PIM3): 32 nM
- IC50 (GSK3β): 2560 nM
- IC50 (PIM1): 8 nM
- IC50 (PIM2): 103 nM

Compound: CC[C@H]1O[C@@H](c2ccncc2NC(=O)c2c[nH]cc(-c3ccccc3)c2=O)C[C@@H](O)[C@@H]1O [Example 170, N-(4-((2R,4R,5S,6R)-6-ethyl-4,5-dihydroxytetrahydro-2H-pyran-2-yl)pyridin-3-yl)-4-oxo-5-phenyl-1,4-dihydropyridine-3-carboxamide]
- IC50 (PIM3): 1320 nM
- IC50 (GSK3β): 3580 nM
- IC50 (PIM1): 1450 nM
- IC50 (PIM2): 11800 nM

Compound: N#C[C@H]1OC(c2ccncc2NC(=O)c2ccc(F)c(-c3c(F)cccc3F)n2)=C[C@@H](O)[C@@H]1O [Example 21, N-(4-((2R,3S,4R)-2-cyano-3,4-dihydroxy-3,4-dihydro-2H-pyran-6-yl)pyridin-3-yl)-6-(2,6-difluorophenyl)-5-fluoropicolinamide]
- IC50 (PIM3): 3 nM
- IC50 (GSK3β): 1140 nM
- IC50 (PIM1): 1 nM
- IC50 (PIM2): 9 nM

Compound: O=C(Nc1cnccc1[C@]1(C(F)(F)F)C[C@H](O)CCO1)c1ccc(F)c(-c2c(F)cccc2F)n1 [Example 50, 6-(2,6-difluorophenyl)-5-fluoro-N-(4-((2S,4R)-4-hydroxy-2-(trifluoromethyl)tetrahydro-2H-pyran-2-yl)pyridin-3-yl)picolinamide]
- IC50 (PIM3): 110 nM
- IC50 (GSK3β): 196 nM
- IC50 (PIM1): 28 nM
- IC50 (PIM2): 2130 nM

Compound: Nc1cnc(-c2c(F)cccc2F)nc1C(=O)Nc1cnccc1[C@H]1C[C@@H](O)[C@@]2(O)CCCC[C@H]2O1 [Example 172, 5-amino-2-(2,6-difluorophenyl)-N-(4-((2R,4R,4aS,8aR)-4,4a-dihydroxyoctahydro-2H-chromen-2-yl)pyridin-3-yl)pyrimidine-4-carboxamide]
- IC50 (PIM3): 3.1 nM
- IC50 (GSK3β): 21 nM
- IC50 (PIM1): 2.2 nM
- IC50 (PIM2): 3.1 nM

Compound: C[C@@H]1O[C@H](c2ccncc2NC(=O)c2ccc(F)c(-c3c(F)cccc3F)n2)C[C@H](O)[C@]1(O)CO [Example 19, 6-(2,6-difluorophenyl)-N-(4-((2S,4S,5R,6S)-4,5-dihydroxy-5-(hydroxymethyl)-6-methyltetrahydro-2H-pyran-2-yl)pyridin-3-yl)-5-fluoropicolinamide]
- IC50 (PIM3): 4 nM
- IC50 (GSK3β): 703 nM
- IC50 (PIM1): 1 nM
- IC50 (PIM2): 10 nM

Compound: O=C(Nc1cnccc1[C@H]1C[C@@H](O)[C@H](O)[C@@H](CF)O1)c1ccc(F)c(-c2c(F)cccc2F)n1 [Example 282, 6-(2,6-difluorophenyl)-5-fluoro-N-(4-((2R,4R,5S,6S)-6-(fluoromethyl)-4,5-dihydroxytetrahydro-2H-pyran-2-yl)pyridin-3-yl)picolinamide]
- IC50 (PIM3): 4 nM
- IC50 (GSK3β): 187 nM
- IC50 (PIM1): 1 nM
- IC50 (PIM2): 10 nM

Compound: O=C(Nc1cnccc1[C@]1(C(F)(F)F)C[C@H](O)C=CO1)c1ccc(F)c(-c2c(F)cccc2F)n1 [Example 49, 6-(2,6-difluorophenyl)-5-fluoro-N-(4-((2S,4S)-4-hydroxy-2-(trifluoromethyl)-3,4-dihydro-2H-pyran-2-yl)pyridin-3-yl)picolinamide]
- IC50 (PIM3): 73 nM
- IC50 (GSK3β): 210 nM
- IC50 (PIM1): 27 nM
- IC50 (PIM2): 1420 nM

Compound: O=C(Nc1cnccc1[C@@]1(C(F)(F)F)C[C@@H](O)C=CO1)c1ccc(F)c(-c2c(F)cccc2F)n1 [Example 48, 6-(2,6-difluorophenyl)-5-fluoro-N-(4-((2R,4R)-4-hydroxy-2-(trifluoromethyl)-3,4-dihydro-2H-pyran-2-yl)pyridin-3-yl)picolinamide]
- IC50 (PIM3): 1770 nM
- IC50 (GSK3β): 3620 nM
- IC50 (PIM1): 72 nM
- IC50 (PIM2): 19600 nM

Compound: O=C(Nc1cnccc1[C@]1(C(F)(F)F)CCCCO1)c1ccc(F)c(-c2c(F)cccc2F)n1 [Example 52, (S)-6-(2,6-difluorophenyl)-5-fluoro-N-(4-(2-(trifluoromethyl)tetrahydro-2H-pyran-2-yl)pyridin-3-yl)picolinamide]
- IC50 (PIM3): 124 nM
- IC50 (GSK3β): 695 nM
- IC50 (PIM1): 29 nM
- IC50 (PIM2): 4220 nM

Compound: O=C(Nc1cnccc1[C@@H]1C[C@H](O)[C@]2(O)CCCC[C@@H]2O1)c1c[nH]cc(-c2ccccc2)c1=O [Example 171, N-(4-((2S,4S,4aR,8aS)-4,4a-dihydroxyoctahydro-2H-chromen-2-yl)pyridin-3-yl)-4-oxo-5-phenyl-1,4-dihydropyridine-3-carboxamide]
- IC50 (PIM3): 10800 nM
- IC50 (GSK3β): > 25000 nM
- IC50 (PIM1): 8370 nM
- IC50 (PIM2): > 25000 nM

Compound: NC(=O)C[C@H]1O[C@@H](c2ccncc2NC(=O)c2ccc(F)c(-c3c(F)cccc3F)n2)C[C@@H](O)[C@@H]1O [Example 159, N-(4-((2R,4R,5S,6R)-6-(2-amino-2-oxoethyl)-4,5-dihydroxytetrahydro-2H-pyran-2-yl)pyridin-3-yl)-6-(2,6-difluorophenyl)-5-fluoropicolinamide]
- IC50 (PIM3): 890 nM
- IC50 (PIM2): 6640 nM

Compound: N#CC[C@H]1O[C@@H](c2ccncc2NC(=O)c2ccc(C#N)c(-c3c(F)cccc3F)n2)CC[C@@H]1O [Example 45, 5-cyano-N-(4-((2R,5S,6R)-6-(cyanomethyl)-5-hydroxytetrahydro-2H-pyran-2-yl)pyridin-3-yl)-6-(2,6-difluorophenyl)picolinamide]
- IC50 (PIM3): 338 nM
- IC50 (GSK3β): 4310 nM
- IC50 (PIM1): 68 nM
- IC50 (PIM2): 1270 nM

Compound: O=C(Nc1cnccc1[C@@]1(C(F)(F)F)CCCCO1)c1ccc(F)c(-c2c(F)cccc2F)n1 [Example 51, (R)-6-(2,6-difluorophenyl)-5-fluoro-N-(4-(2-(trifluoromethyl)tetrahydro-2H-pyran-2-yl)pyridin-3-yl)picolinamide]
- IC50 (PIM3): 617 nM
- IC50 (GSK3β): 3720 nM
- IC50 (PIM1): 54 nM
- IC50 (PIM2): 7360 nM
